Among the data in US20170037028A1 (BAYER PHARMA AKTIENGESELLSCHAFT, priority 2013, published 2017) are IC50 values, retold here.

The IC50 is the concentration that inhibits the measured activity by half.

In the experiment the target is T1, GLUT1 (Homo sapiens, UniProt P11166).
T1 sequence (P11166 1-492): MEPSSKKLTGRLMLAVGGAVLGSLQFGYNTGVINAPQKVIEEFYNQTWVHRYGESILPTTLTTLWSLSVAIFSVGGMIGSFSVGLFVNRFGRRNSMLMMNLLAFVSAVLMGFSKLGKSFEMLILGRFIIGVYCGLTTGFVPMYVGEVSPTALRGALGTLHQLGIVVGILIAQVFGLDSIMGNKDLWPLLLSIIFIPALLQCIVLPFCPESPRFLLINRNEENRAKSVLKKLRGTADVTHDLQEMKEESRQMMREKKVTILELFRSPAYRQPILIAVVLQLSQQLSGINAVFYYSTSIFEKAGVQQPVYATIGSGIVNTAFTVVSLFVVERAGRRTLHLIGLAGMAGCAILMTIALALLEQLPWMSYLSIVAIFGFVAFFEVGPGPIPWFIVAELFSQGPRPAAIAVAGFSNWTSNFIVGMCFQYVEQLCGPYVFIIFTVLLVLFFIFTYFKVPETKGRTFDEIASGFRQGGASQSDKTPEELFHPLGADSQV
The experiment can be described thus: Indirect measurement of GLUT1 activity by quantification of intracellular ATP levels (glucose induced ATP increase). The class given is cell-based. Further details: endogenous in cells; host or cells: DLD1 or CHO-K1. The settings on record: read-out: IC50 regarding glucose induced ATP increase (GLUT1 inhibition). Put shortly:
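DLD1 or CHO-K1 cells were starved overnight in glucose-free medium with 1% FCS, then combined with an oxidative phosphorylation inhibitor. GLUT1 activity was read as glucose-induced ATP increase, GLUT2 as fructose-induced. Intracellular ATP was quantified by CellTiter-Glo luminescence.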
Turning to `Cc1nn(Cc2ccc(F)cc2)c(C)c1NC(=O)c1cc(C(F)(F)F)nc2c(F)cccc12` [Example 85, 8-fluoro-N-[1-(4-fluorobenzyl)-3,5-dimethyl-1H-pyrazol-4-yl]-2-(trifluoromethyl)quinoline-4-carboxamide], the IC50 was 0.257 µM.

With `Cc1cc(C(=O)Nc2c(C)nn(Cc3ccc(F)cc3)c2C)c2cccc(C)c2n1` [Example 86, N-[1-(4-fluorobenzyl)-3,5-dimethyl-1H-pyrazol-4-yl]-2,8-dimethylquinoline-4-carboxamide], the IC50 is 0.257 µM.

On to `COc1cc(C(=O)Nc2c(C)nn(Cc3cccc(F)c3)c2C)c2ccccc2n1` [Example 87, N-[1-(3-fluorobenzyl)-3,5-dimethyl-1H-pyrazol-4-yl]-2-methoxyquinoline-4-carboxamide], for which the IC50 stood at 0.267 µM.

Consider `Cc1nn(Cc2ccc(F)cc2)c(C)c1NC(=O)c1cc(C(F)(F)F)nc2cc(Br)ccc12` [Example 88, 7-bromo-N-[1-(4-fluorobenzyl)-3,5-dimethyl-1H-pyrazol-4-yl]-2-(trifluoromethyl)quinoline-4-carboxamide], for which the IC50 was 0.281 µM.

Turning to `Cc1ccccc1Cn1nc(C)c(NC(=O)c2cc(C(F)(F)F)nc3c(Cl)cc(Cl)cc23)c1C` [Example 89, 6,8-dichloro-N-[3,5-dimethyl-1-(2-methylbenzyl)-1H-pyrazol-4-yl]-2-(trifluoromethyl)quinoline-4-carboxamide], the IC50 came to 0.281 µM.

As to `Cc1cc(C(=O)Nc2c(C)nn(Cc3ccc(F)cc3)c2C)c2cc(F)ccc2n1` [Example 90, 6-fluoro-N-[1-(4-fluorobenzyl)-3,5-dimethyl-1H-pyrazol-4-yl]-2-methylquinoline-4-carboxamide], the IC50 is 0.291 µM.

`Cc1nn(Cc2cccc(C#N)c2)c(C)c1NC(=O)c1cc(C(F)(F)F)nc2c(Cl)cc(Cl)cc12` [Example 91, 6,8-dichloro-N-[1-(3-cyanobenzyl)-3,5-dimethyl-1H-pyrazol-4-yl]-2-(trifluoromethyl)quinoline-4-carboxamide]: the IC50 is 0.292 µM.

Consider `Cc1ccc2nc(C)cc(C(=O)Nc3c(C)nn(Cc4ccccc4)c3C)c2c1` [Example 92, N-(1-benzyl-3,5-dimethyl-1H-pyrazol-4-yl)-2,6-dimethylquinoline-4-carboxamide], for which the IC50 was 0.292 µM.

In the case of `Cc1nn(Cc2cccc(OC(F)(F)F)c2)c(C)c1NC(=O)c1cc(C(F)(F)F)nc2c(Cl)cc(Cl)cc12` [Example 93, 6,8-dichloro-N-{3,5-dimethyl-1-[3-(trifluoromethoxy)benzyl]-1H-pyrazol-4-yl}-2-(trifluoromethyl)quinoline-4-carboxamide], the IC50 was 0.292 µM.

`Cc1nn(Cc2ccccc2F)c(C)c1NC(=O)c1cc(C(F)(F)F)nc2c(Cl)cc(Cl)cc12` [Example 94, 6,8-dichloro-N-[1-(2-fluorobenzyl)-3,5-dimethyl-1H-pyrazol-4-yl]-2-(trifluoromethyl)quinoline-4-carboxamide]: the IC50 was found to be 0.304 µM.

Take `COc1c(C)nc2ccccc2c1C(=O)Nc1c(C)nn(Cc2ccc(F)cc2)c1C` [Example 95, N-[1-(4-fluorobenzyl)-3,5-dimethyl-1H-pyrazol-4-yl]-3-methoxy-2-methylquinoline-4-carboxamide]: the IC50 was found to be 0.309 µM.

As for `Cc1ccc2nc(C)cc(C(=O)Nc3c(C)nn(Cc4ccc(F)cc4F)c3C)c2c1` [Example 96, N-[1-(2,4-difluorobenzyl)-3,5-dimethyl-1H-pyrazol-4-yl]-2,6-dimethylquinoline-4-carboxamide], the IC50 was determined as 0.344 µM.

With `COc1cccc(Cn2nc(C)c(NC(=O)c3cc(C(F)(F)F)nc4ccc(Br)cc34)c2C)c1` [Example 97, 6-bromo-N-[1-(3-methoxybenzyl)-3,5-dimethyl-1H-pyrazol-4-yl]-2-(trifluoromethyl)quinoline-4-carboxamide], the IC50 stood at 0.354 µM.

For `Cc1nn(Cc2ccc(F)cc2)c(C)c1NC(=O)c1cc(C(F)(F)F)nc2ccc(C(F)(F)F)cc12` [Example 98, N-[1-(4-fluorobenzyl)-3,5-dimethyl-1H-pyrazol-4-yl]-2,6-bis(trifluoromethyl)quinoline-4-carboxamide], the IC50 is 0.362 µM.
